Data: patent US20030083501A1, “Process for preparing paroxetine HCl which limits formation of pink colored compounds” (priority 2001, published 2003)
Structures can show the parent of a compound that is named as a salt.

Tests used:
Type in all cases: physicochemical
[1] = Visual analysis of the colour of a paroxetine HCl solution; conditions: 2 mg/ml paroxetine HCl in 0.05M di-Potassium hydrogen phosphate buffer and 35% acetonitrile, standing 20 minutes
Protocol: One visual analysis can be carried out by preparing a solution of about 2 mg/ml of paroxetine HCl prepared in a mixture of about 0.05M di-Potassium hydrogen phosphate buffer and about 35% of acetonitrile. […] Preferably, the solution of the paroxetine HCl of the present invention is color free for at least about 20 minutes. On the other hand, available commercial products usually produce a pink colored solution under similar conditions. To test the purity of the final product, a 2 mg/ml solution of paroxetine HCl was prepared in a mixture of 0.05M di-Potassium hydrogen phosphate buffer and 35% of acetonitrile.

[2] = HPLC content of the impurity at RRT about 1.5 after storage; conditions: storage for 4 days at 55° C., UV 285 nm, b52 gives such levels as HPLC area percentage, HCl
Excerpt: Without being bound by theory, it is believed that impurities in paroxetine hydrochloride play a role in the color change to pink. The level of the impurities in paroxetine that are associated with a color change to pink can be analyzed in two different manners. One approach is a simple visual analysis, i.e., observing if a sample of paroxetine HCl has turned pink. Another approach is to measure the degree of an impurity identified by a high pressure liquid chromatography (“HPLC”) relative retention time (“RRT”) of about 1.5. The different UV-spectrum characteristic of this impurity has linked the impurity to the development of a pink color. […] Purification steps to remove this impurity such as by crystallization, extraction, chromatography or other separation procedures are often ineffective. The paroxetine hydrochloride of the present process is substantially free of impurities associated with a color change to pink, and is less susceptible, if at all, to develop a pink color overtime These impurities include the impurity identified by an HPLC RRT of about 1.5. Retention time refers to the time required for a compound to pass from the point of injection to the detector. […] Detected by U.V. spectroscopy at λ=285 nm.

[3] = Visual analysis of the colour of solid paroxetine HCl during storage; conditions: storage for at least one month at 55° C.
Protocol: Another visual analysis can be carried out by observing the color of paroxetine hydrochloride during storage. Preferably, the paroxetine HCl of the present invention is substantially free compounds associated with a pink color for at least four days at a temperature of about 55° C. and a relative humidity of about 60-80%. One of skill in the art can appreciate that the level of the compounds associated with a pink color can vary according to the temperature and other conditions used for storage.
Paroxetine HCl (approximately 4 grams) was dissolved in toluene(40 ml) at reflux. Ascorbic acid (40 mg) and active carbon SX1 (200 mg) were added to the solution and stirred for 5-10 minutes. The solution was then filtered. The filtrate was cooled to 2-4° C., stirred for approximately 1 hour and filtered again to separate a formed precipitate. The solid precipitate was washed with toluene (4 ml) and dried at a temperature of 60° C. under vacuum to give white (color-free) product (3.4 grams). The product was color-free during storage for at least one month at a temperature of 55° C., and yielded solutions (carried out in the same manner as example 1) that were also color-free.

Structure (SMILES) | development of a pink color in solution [1] | content of the impurity at RRT about 1.5 after storage [2] | color of the product during storage [3]
Fc1ccc([C@@H]2CCNC[C@H]2COc2ccc3c(c2)OCO3)cc1 [Example 1, paroxetine HCl] | did not develop a pink color | – | –
Fc1ccc([C@@H]2CCNC[C@H]2COc2ccc3c(c2)OCO3)cc1 [Example 2, paroxetine HCl] | – | 0.02 | –
Fc1ccc([C@@H]2CCNC[C@H]2COc2ccc3c(c2)OCO3)cc1 [Example 3, paroxetine HCl] | – | 0.23 | –
Fc1ccc([C@@H]2CCNC[C@H]2COc2ccc3c(c2)OCO3)cc1 [Example 5, Paroxetine HCl] | color-free | – | color-free
